US20120065365A1, “Stable Radiopharmaceutical Compositions and Methods for Their Preparation” (BRACCO IMAGING S.P.A., priority 2003, published 2012)
Where a name gives a salt, the structure may show the parent alone.

Experiments:
[1] = Radiostability (RCP, Met═O by HPLC) of preformed ^177Lu-A with individual amino acids added (Example 1); assay type: physicochemical; details: amino acid 6.6 mg/mL, room temperature; for 0-1 h RCP (%): ^177Lu-A ~20 mCi/mL (3.5 mCi total); for 24-h RCP (%) / 48-h RCP (%): ^177Lu-A ~20 mCi/mL
Description: The injection volume was 20 μL.
Solutions of the individual amino acids L-Methionine, L-Selenomethionine, L-cysteine HCl.H2O, L-Tryptophan, L-Histidine, and Glycine were prepared at a concentration of 10 mg/mL in 10 mM Dulbecco's phosphate-buffered saline, pH 7.0 [PBS].
The final radioactive concentration of each sample was ˜20 mCi/mL.

[2] = assay type: physicochemical; details: for RCP % t = 0 h: ^177Lu-A (5.28 mCi avg) prepared in presence of stabilizer 3.33 mg/mL; for RCP (%) t = 72 h: ^177Lu-A prepared and stored in presence of stabilizer 3.33 mg/mL, room temperature
Description: 10 mg/mL solutions of thiamine hydrochloride and L-glutathione were prepared by disserving them in water. 10 mg/mL solutions of 3-hydroxycinnamic acid, 4-hydroxyantipyrine and acetylsalicylic acid were prepared by dissolving them in 50% EtOH/water. 10 mg/mL solutions of 2-hydroxybenzothiazole and 2,1,3-benzothiadiazole were prepared by dissolving them in EtOH.

Compound: N[C@@H](Cc1c[nH]c2ccccc12)C(=O)O [Tryptophan, L-Tryptophan]
- 0-1 h RCP (%) [1]: 95.5%
- 24-h RCP (%) [1]: 51.4%
- 48-h RCP (%) [1]: 18.2%

Compound: Cc1c(O)c(=O)n(-c2ccccc2)n1C [4-Hydroxyantipyrine]
- RCP % t = 0 h [2]: 99.9%
- RCP (%) t = 72 h [2]: 0%

Compound: Oc1nc2ccccc2s1 [2-Hydroxybenzothiazole]
- RCP % t = 0 h [2]: 96.2%
- RCP (%) t = 72 h [2]: 9.6%

Compound: N[C@@H](CCC(=O)N[C@@H](CS)C(=O)NCC(=O)O)C(=O)O [L-Glutathione, L-Glutathione, reduced]
- RCP % t = 0 h [2]: 91.1%
- RCP (%) t = 72 h [2]: 0%

Compound: CC(=O)Oc1ccccc1C(=O)O [Acetylsalicylic acid, Acetylsalicyclic acid, reference compound]
- RCP % t = 0 h [2]: 73.0%
- RCP (%) t = 72 h [2]: 0%

Compound: c1ccc2nsnc2c1 [2,1,3-Benzothiadiazole]
- RCP % t = 0 h [2]: 98.6%
- RCP (%) t = 72 h [2]: 3.1%

Compound: NCC(=O)O [Glycine]
- 0-1 h RCP (%) [1]: 96.4%
- 24-h RCP (%) [1]: 14.6%
- 48-h RCP (%) [1]: 0%

Compound: O=C(O)/C=C/c1cccc(O)c1 [3-Hydroxycinnamic acid]
- RCP % t = 0 h [2]: 96.6%
- RCP (%) t = 72 h [2]: 0%

Compound: N[C@@H](Cc1c[nH]cn1)C(=O)O [Histidine, L-Histidine]
- 0-1 h RCP (%) [1]: 92.5%
- 24-h RCP (%) [1]: 4.6%
- 48-h RCP (%) [1]: 0%

Compound: Cc1ncc(C[n+]2csc(CCO)c2C)c(N)n1 [Thiamine hydrochloride, reference compound]
- RCP % t = 0 h [2]: 97.0%
- RCP (%) t = 72 h [2]: 0%
